From patent publication US10226466B2, “Methods of treating fibrosis” (Pharmacyclics LLC, priority 2014, dated 2019)
Values joined by “and” are separate entries in the source; they are usually repeats but may differ in a detail not shown here. Equal values may be shown once. “Also recorded” adds a separate entry of the source.

How the values were obtained:
[1] = system: p53^ER/ER;LSLKRas^G12D;pdx1-Cre mice; assay: Histology, immunohistochemistry and Picrosirius Red collagen staining of pancreata from PDAC model mice treated for 4 weeks; format: in vivo, mouse; conditions: for Collagen deposition (Picrosirius Red Staining): intraperitoneal daily injection of 10 mg per kg for 4 weeks from 8 weeks of age, compared to vehicle-treated control
Procedure: (§1) For immunohistochemical analyses, tissue samples were fixed overnight in neutral pH-buffered formalin, embedded in paraffin and sectioned (5 μm). Sections were then deparaffinized, rehydrated and microwaved for 1 min in 0.01 M citrate buffer (pH 6.0) for antigen retrieval. Primary antibodies (rat monoclonal anti-CD11b (clone M1/70), eBioscience; rabbit monoclonal anti-Ki67 (clone SP6), Neomarkers) were applied for 2 h in blocking buffer (2.5% BSA, 5% goat serum and 0.3% Triton X-100 in PBS), followed by Vectastain ABC kit and DAB reagents (Vector Laboratories). Images were obtained with an Axiovert S100 TV inverted fluorescence microscope (Zeiss) and Open Lab 3.5.1 software, or with an Axiovert 100 inverted microscope (Zeiss) equipped with a Hamamatsu Orca digital camera. The mast cells were identified using 1% toluidine blue dissolved in ethanol. Picrosirius Red stain kit (Polysciences, Inc.) was used to stain for collagen Types I and III according to manufacturer instructions.
For all experiments, 8 week old male and female p53^ER/ER;LSLKRas^G12D;pdx1-Cre mice of mixed C57BL/6-FVB/N background were randomized into two groups: treated and control. Ibrutinib (0.16 mg/mL with 1% 2-Hydroxypropyl-beta-cyclodextrin (HP-β-CD)) was added to the drinking water of treated animals, and control animals received water containing vehicle only (1% HP-β-CD). Gemcitabine (75 mg/kg) was injected intraperitoneally twice a week for 3 weeks followed by a 1-week rest period. Sodium cromoglycate ([…]) was dissolved in saline solution and injected intraperitoneally, and control mice were treated with vehicle only. Endpoint criteria were defined as 20% body weight loss in addition to general morbidity and lethargy caused by tumor burden. Mice euthanized due to intestinal metaplasia or mucocutaneous papillomas caused by extrapancreatic KRAS^G12D expression were excluded from the survival study.
A p53^ER/ER;LSLKRas^G12D;pdx1-Cre mouse model that harbors a Cre-activated KRasG12D allele inserted into the endogenous KRas locus combined with pancreas-specific PDX-1-driven Cre recombinase activity was used. The disruption of Trp53 signaling in combination with KRas mutation leads to rapid tumorigenesis and histopathological features typical of human pancreatic adenocarcinoma within only 8 weeks. At this stage the animals were treated with ibrutinib, at a dose of 25 mg/Kg/day added to their drinking water, or with vehicle control. The animals were euthanized 4 weeks later and their pancreata harvested for analysis. […] In stained, vehicle-treated mast cells, the cell borders were broken and the content of their granules were released. […] Reasons for this phenomenon can include the fact that several chemokines produced by mast cells, such as IL6, are known to be potent stimulants for monocytic cell migration and macrophage activation, so that inhibiting mast cells could prevent their recruitment.
In order to verify that this effect on fibrosis was specifically due to mast cell interference, two independent control experiments were performed. In the first experiment, sodium cromoglycate (cromolyn), a well-characterized blocker of mast cell degranulation and inflammogen release was used. The p53^ER/ER;LSLKRas^G12D ,pdx1-Cre mice were treated intraperitoneally (i.p.) with a daily injection of 10 mg per kg (bodyweight) of cromolyn, starting at 8 weeks of age. The animals were euthanized 4 weeks later and their pancreata analysed.

[2] = system: p53^ER/ER;LSLKRas^G12D;pdx1-Cre mice; assay: Flow cytometry of single cell suspensions of PDAC tumors from treated mice; format: in vivo, mouse; conditions: ibrutinib 25 mg/Kg/day in drinking water, 4 weeks
Procedure: Following resection, PDAC tumors isolated from PBS-perfused mice were immediately placed in ice-cold PBS, followed by manual mincing using scissors and a 20 min enzymatic digestion with 1.25 mg/mL collagenase type IV (Roche), 0.1% trypsin inhibitor, and 50 U/ml DNase I (Roche) in serum-free Dulbecco's Modified Eagle's Medium (DMEM) (Invitrogen) at 37° C. with continuous stirring. Single cell suspensions were then prepared by passing tissue through 70 μm nylon strainers (BD Biosciences). Cells were incubated for 30 min at 4° C. with rat anti-mouse CD16/CD32 mAb (1:250, clone 2.4G2, BD Bioscience) in PBS, which also contained Live/Dead Aqua stain (1:250, Invitrogen) to differentiate between viable and dead cells. Cells were then incubated for 30 min in PBS containing 1.0% BSA (Sigma) and 2 mM EDTA with 100 μl of fluorophore-conjugated anti-mouse antibodies (dilution; clone): PE-Cy7-CD45 (1:800; 30-F11), PerCp-Cy5.5-CD3e (1:400; 145-2C11), PerCp-Cy5.5-CD19 (1:200; 6D5), PerCp-Cy5.5-CD49b (1:400; DX5), Alexa 700-CD11b (1:400; M1/70), APC780-CD11c (1:200; N418), eFluor450-MHCII (1:800; M5/114.15.2), APC-Ly6C (1:800; HK1.4), PE-Ly6G (1:400; 1A8), and PE-Cy5-F4/80 (1:400; BM8) (eBioscience or Biolegend). Cells were then washed once in PBS containing 1.0% BSA (Sigma) and 2 mM EDTA, followed by fixation with BD Cytofix for 30 min on ice. […]

[3] = system: subcutaneous xenografts of a patient derived tumor in NOD/SCID mice; assay: Collagen deposition in subcutaneous xenografts of a patient-derived tumor (PDX) in NOD/SCID mice; format: in vivo, mouse; conditions: NOD/SCID mice with patient-derived xenograft, ibrutinib-treated vs untreated
Procedure: as §1
NOD/SCID mice were purchased from Charles River Laboratory. The anonymized human sample employed was part of the tissue biological material of the University Hospital Vall d'Hebron. […] Tumor size was evaluated weekly by caliper measurements and tumor volume calculated using the following formula: […]

[4] = system: p53^ER/ER;LSLKRas^G12D;pdx1-Cre mice; assay: Survival study in PDAC model mice (Kaplan-Meier, Log-rank test); format: in vivo, mouse; conditions: treatment starting from 8 weeks of age; Log-rank p value=0.015
Procedure: For all experiments, 8 week old male and female p53^ER/ER;LSLKRas^G12D;pdx1-Cre mice of mixed C57BL/6-FVB/N background were randomized into two groups: treated and control. Ibrutinib (0.16 mg/mL with 1% 2-Hydroxypropyl-beta-cyclodextrin (HP-β-CD)) was added to the drinking water of treated animals, and control animals received water containing vehicle only (1% HP-β-CD). Gemcitabine (75 mg/kg) was injected intraperitoneally twice a week for 3 weeks followed by a 1-week rest period. Sodium cromoglycate (10/kg) was dissolved in saline solution and injected intraperitoneally, and control mice were treated with vehicle only. Endpoint criteria were defined as 20% body weight loss in addition to general morbidity and lethargy caused by tumor burden. Mice euthanized due to intestinal metaplasia or mucocutaneous papillomas caused by extrapancreatic KRAS^G12D expression were excluded from the survival study.
Statistical analysis was carried out by two-tailed Mann-Whitney test (for IHC counts), two tailed unpaired t-test (for flow cytometry data) and Log-Rank test (for Kaplan-Meier survival curves). […] Statistical analysis was performed using GraphPad Prism 4.
Two independent survival experiments were undertaken to test the therapeutic impact of ibrutinib alone and to assess ibrutinib in combination with gemcitabine.

mast cell = conditions: mouse model of insulinoma; background statement; cited from earlier work

| Compound | Ki67 positive (proliferating) cells in pancreata / proliferation rate ([1]; ibrutinib 25 mg/Kg/day in drinking water for 4 weeks from 8 weeks of age, IHC, vehicle control 67.8%, p value=0.0016) | Mast cell degranulation in tumor stroma (toluidine blue staining) ([1]; ibrutinib 25 mg/Kg/day in drinking water, 4 weeks) | Amount of collagen in tumors (Picrosirius Red Staining) ([1]; ibrutinib 25 mg/Kg/day in drinking water, 4 weeks, compared to vehicle-treated animals) | CD11b positivity by immunohistochemistry ([1]; ibrutinib 25 mg/Kg/day in drinking water, 4 weeks, compared to vehicle-treated mice) | F4/80 positive macrophages (tumor-associated macrophages) by FACS analysis ([2]; FIG. 1C right panel) | CD11b+ cells by FACS analysis ([2]; percent of total cells, FIG. 1C left panel) | Collagen deposition / tissue fibrosis in tumor stroma (Picrosirius Red Staining) [3] | Survival, monotherapy vs vehicle control [4] | Systemic mast cell blocking (mast cell) | Collagen deposition (Picrosirius Red Staining) [1] | Collagen deposition (Picrosirius Red Staining) ([1]; listed as sodium cromoglicate) |
| --- | --- | --- | --- | --- | --- | --- | --- | --- | --- | --- | --- |
| C=CC(=O)N1CCC[C@@H](n2nc(-c3ccc(Oc4ccccc4)cc3)c3c(N)ncnc32)C1 [ibrutinib, (R)-1-(3-(4-amino-3-(4-phenoxyphenyl)-1H-pyrazolo[3,4-d]pyrimidin-1-yl)piperidin-1-yl)prop-2-en-1-one] | 14.9±7.0% and 14.9% | efficiently inhibited | reduced the amount of collagen | affected; also recorded: clear reduction of CD11b positivity | significant reduction | confirmed by FACS analysis | reduction in tissue fibrosis; also recorded: reduction of collagen deposition | significant survival advantage; also recorded: confers survival advantage | potent systemic mast cell blocker |  |  |
| O=C(O)c1cc(=O)c2c(OCC(O)COc3cccc4oc(C(=O)O)cc(=O)c34)cccc2o1 [cromolyn, sodium cromoglycate, reference compound] |  |  |  |  |  |  |  |  |  | reduced collagen deposition | recapitulated the antifibrotic effect |
